Key:
[1] = target: T1, Beta-adrenergic receptor kinase 1 (Homo sapiens) (UniProt P25098); assay: Selectivity interaction (KinomeScan (DiscoverX)) EUB0000229b ADRBK1; settings: at 10 µM
T1 sequence (whole entry): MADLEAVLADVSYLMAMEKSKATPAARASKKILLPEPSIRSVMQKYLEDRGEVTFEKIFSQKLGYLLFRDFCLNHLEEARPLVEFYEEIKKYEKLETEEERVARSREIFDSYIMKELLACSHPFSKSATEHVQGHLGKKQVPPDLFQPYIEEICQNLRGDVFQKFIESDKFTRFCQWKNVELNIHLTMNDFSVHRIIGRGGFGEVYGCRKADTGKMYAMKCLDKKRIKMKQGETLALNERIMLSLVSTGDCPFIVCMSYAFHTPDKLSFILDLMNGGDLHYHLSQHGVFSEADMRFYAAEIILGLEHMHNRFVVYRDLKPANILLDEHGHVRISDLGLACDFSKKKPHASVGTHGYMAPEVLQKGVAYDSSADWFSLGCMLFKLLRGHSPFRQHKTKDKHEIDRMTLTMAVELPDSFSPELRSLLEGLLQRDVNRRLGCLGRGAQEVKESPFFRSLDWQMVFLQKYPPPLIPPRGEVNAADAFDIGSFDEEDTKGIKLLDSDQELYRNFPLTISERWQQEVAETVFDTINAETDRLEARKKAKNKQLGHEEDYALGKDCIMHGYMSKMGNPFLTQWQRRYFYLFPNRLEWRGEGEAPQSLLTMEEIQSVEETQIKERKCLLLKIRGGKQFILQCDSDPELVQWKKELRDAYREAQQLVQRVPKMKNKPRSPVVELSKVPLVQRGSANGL

[2] = target: Vascular endothelial growth factor receptor 2 (Homo sapiens, UniProt P35968); assay: Selectivity interaction (KinomeScan (DiscoverX)) EUB0001079a KDR; settings: at 1 µM
[3] = test system: Tyrosine-protein kinase ABL1 (Homo sapiens), P00519 [Q252H]; assay: Selectivity interaction (KinomeScan (DiscoverX)) EUB0001079a ABL1; settings: at 1 µM
[4] = target: Tyrosine-protein kinase ABL1 (Homo sapiens, UniProt P00519); assay: Selectivity interaction (Kinase panel (Invitrogen)) EUB0000639a ABL1; settings: at 200 nM
[5] = target: Cyclin-dependent kinase 13 (Homo sapiens, UniProt Q14004); assay: Selectivity interaction (KinomeScan (DiscoverX)) EUB0000607a CDK13; settings: at 10 µM
[6] = target: T2, Receptor-interacting serine/threonine-protein kinase 4 (Homo sapiens) (UniProt P57078); assay: Selectivity interaction (KinomeScan (DiscoverX)) EUB0000595a RIPK4; settings: at 10 µM
T2 sequence (whole entry): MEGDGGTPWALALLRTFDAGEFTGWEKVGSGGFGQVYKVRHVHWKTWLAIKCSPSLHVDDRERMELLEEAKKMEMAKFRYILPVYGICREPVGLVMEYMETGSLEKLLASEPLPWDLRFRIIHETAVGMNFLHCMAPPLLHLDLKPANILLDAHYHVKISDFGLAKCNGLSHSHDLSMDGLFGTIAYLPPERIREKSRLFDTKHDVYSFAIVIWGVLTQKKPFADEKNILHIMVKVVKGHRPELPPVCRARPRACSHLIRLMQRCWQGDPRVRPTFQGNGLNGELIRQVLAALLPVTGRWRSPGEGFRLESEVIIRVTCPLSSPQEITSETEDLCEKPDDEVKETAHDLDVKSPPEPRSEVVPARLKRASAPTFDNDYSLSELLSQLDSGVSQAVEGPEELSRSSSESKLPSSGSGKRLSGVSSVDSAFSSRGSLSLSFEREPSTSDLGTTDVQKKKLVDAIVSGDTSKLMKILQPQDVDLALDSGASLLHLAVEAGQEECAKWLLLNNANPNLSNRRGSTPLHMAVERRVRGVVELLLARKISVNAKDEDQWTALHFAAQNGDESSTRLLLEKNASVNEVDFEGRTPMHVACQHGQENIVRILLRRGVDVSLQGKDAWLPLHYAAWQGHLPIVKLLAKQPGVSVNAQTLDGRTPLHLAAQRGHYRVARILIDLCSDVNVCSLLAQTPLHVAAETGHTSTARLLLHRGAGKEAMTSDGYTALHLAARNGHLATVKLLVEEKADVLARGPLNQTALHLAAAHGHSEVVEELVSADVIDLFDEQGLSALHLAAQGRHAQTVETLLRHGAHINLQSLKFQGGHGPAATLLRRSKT

Misshapen-like kinase 1 = Misshapen-like kinase 1 (Homo sapiens, UniProt Q8N4C8); assay: Selectivity interaction (Enzymatic assay) EUB0001199aCl MINK1
[7] = target: Protein kinase C alpha type (Homo sapiens, UniProt P17252); assay: Selectivity interaction (Kinase panel (literature)) EUB0001199aCl PRKCA; settings: at 1 µM
[8] = target: Ephrin type-A receptor 2 (Homo sapiens) (UniProt P29317); assay: Selectivity interaction (Kinase panel (literature)) EUB0001199aCl EPHA2; settings: at 1 µM
[9] = target: T3, Histone-arginine methyltransferase CARM1 (Homo sapiens) (UniProt Q86X55); settings: MM.1R, at 3 µM
T3 sequence (whole entry): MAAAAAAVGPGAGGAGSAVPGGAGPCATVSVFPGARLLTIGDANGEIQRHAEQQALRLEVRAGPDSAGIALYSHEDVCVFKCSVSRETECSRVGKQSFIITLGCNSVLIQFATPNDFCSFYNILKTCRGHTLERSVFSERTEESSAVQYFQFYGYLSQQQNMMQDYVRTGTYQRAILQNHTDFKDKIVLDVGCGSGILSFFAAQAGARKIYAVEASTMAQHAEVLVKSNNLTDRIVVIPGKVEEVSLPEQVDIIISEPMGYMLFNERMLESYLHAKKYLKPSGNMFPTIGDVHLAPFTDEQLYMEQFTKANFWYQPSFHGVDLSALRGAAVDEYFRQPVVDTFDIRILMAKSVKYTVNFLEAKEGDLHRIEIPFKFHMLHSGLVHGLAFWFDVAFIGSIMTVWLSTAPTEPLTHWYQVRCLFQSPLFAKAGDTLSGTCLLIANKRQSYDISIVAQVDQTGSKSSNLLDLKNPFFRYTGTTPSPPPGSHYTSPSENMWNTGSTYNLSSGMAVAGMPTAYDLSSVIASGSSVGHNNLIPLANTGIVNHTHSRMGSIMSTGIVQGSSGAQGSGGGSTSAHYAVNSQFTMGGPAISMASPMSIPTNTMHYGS

Misshapen-like kinase 1, sequence (Q8N4C8 whole entry): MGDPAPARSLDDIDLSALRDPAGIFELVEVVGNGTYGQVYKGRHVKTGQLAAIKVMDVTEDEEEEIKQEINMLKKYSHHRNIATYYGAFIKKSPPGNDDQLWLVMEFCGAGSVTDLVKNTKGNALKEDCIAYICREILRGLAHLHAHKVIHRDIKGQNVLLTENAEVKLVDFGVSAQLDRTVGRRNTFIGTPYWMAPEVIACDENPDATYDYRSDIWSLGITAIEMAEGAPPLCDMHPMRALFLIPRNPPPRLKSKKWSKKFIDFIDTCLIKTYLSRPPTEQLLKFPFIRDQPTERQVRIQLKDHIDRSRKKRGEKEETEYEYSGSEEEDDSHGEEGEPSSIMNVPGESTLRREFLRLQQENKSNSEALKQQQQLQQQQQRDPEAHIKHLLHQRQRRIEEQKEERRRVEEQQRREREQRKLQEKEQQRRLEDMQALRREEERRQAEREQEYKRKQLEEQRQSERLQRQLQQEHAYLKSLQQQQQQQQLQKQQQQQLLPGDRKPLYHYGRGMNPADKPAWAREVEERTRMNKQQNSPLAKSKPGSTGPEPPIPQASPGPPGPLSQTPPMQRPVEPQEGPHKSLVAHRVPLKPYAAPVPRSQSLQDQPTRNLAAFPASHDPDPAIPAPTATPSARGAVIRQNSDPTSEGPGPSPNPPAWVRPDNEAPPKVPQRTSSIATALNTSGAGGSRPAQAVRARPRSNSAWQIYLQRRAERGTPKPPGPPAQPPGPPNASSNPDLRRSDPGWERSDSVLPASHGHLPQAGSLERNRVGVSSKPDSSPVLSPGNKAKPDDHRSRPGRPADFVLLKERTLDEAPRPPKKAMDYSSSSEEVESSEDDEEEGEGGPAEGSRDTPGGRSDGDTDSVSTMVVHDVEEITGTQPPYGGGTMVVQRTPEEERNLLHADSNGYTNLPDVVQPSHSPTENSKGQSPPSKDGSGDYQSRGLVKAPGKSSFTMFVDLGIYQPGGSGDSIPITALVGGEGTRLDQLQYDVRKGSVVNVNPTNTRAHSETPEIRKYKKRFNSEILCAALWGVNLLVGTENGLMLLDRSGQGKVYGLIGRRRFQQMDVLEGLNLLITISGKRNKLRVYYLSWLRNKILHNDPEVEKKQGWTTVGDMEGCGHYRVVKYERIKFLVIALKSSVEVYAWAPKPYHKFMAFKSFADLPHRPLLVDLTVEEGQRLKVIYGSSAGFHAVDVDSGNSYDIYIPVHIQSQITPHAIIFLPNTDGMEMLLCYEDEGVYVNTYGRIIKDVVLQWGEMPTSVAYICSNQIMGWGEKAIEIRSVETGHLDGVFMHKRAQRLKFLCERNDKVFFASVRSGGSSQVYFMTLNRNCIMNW
Cyclin-dependent kinase 13, sequence (Q14004 whole entry, looked up): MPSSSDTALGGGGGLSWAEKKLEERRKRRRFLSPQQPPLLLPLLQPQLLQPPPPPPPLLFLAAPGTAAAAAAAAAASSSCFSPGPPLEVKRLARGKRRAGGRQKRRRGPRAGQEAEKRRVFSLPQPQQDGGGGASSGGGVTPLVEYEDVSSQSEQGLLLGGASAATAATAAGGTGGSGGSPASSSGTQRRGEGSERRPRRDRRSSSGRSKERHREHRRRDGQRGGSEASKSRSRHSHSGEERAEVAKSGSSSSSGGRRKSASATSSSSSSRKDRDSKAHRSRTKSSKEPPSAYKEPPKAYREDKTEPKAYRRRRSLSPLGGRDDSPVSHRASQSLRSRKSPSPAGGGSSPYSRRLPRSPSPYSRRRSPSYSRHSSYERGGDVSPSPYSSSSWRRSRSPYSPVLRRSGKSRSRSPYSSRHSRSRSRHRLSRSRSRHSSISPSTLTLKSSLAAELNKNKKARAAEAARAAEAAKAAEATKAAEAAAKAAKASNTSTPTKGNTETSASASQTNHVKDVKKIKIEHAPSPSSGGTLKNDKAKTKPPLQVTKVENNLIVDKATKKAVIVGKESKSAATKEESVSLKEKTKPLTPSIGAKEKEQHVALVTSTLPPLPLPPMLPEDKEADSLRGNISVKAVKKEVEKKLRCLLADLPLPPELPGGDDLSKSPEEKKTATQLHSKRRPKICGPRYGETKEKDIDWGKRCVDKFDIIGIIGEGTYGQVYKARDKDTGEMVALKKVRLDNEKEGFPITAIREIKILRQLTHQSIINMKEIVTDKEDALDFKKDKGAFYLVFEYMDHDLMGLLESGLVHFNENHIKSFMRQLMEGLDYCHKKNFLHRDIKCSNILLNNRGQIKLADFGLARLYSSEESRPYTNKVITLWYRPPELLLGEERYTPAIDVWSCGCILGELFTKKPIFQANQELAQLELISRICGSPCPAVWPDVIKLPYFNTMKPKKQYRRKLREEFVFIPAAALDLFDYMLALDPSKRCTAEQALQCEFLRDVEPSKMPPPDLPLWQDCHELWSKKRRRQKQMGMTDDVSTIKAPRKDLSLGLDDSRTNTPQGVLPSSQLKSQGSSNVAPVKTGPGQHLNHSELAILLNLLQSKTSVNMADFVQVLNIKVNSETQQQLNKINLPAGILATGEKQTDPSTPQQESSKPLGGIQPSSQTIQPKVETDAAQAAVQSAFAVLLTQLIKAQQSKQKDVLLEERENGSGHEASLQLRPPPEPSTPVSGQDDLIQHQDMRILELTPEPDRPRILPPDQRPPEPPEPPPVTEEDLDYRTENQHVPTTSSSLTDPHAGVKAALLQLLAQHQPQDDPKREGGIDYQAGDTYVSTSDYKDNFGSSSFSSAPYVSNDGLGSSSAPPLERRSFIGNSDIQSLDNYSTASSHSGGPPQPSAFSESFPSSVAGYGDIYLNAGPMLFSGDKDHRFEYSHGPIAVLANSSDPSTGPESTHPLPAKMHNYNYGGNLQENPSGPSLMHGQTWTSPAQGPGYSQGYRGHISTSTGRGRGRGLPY
Ephrin type-A receptor 2 (Homo sapiens), sequence (P29317 whole entry): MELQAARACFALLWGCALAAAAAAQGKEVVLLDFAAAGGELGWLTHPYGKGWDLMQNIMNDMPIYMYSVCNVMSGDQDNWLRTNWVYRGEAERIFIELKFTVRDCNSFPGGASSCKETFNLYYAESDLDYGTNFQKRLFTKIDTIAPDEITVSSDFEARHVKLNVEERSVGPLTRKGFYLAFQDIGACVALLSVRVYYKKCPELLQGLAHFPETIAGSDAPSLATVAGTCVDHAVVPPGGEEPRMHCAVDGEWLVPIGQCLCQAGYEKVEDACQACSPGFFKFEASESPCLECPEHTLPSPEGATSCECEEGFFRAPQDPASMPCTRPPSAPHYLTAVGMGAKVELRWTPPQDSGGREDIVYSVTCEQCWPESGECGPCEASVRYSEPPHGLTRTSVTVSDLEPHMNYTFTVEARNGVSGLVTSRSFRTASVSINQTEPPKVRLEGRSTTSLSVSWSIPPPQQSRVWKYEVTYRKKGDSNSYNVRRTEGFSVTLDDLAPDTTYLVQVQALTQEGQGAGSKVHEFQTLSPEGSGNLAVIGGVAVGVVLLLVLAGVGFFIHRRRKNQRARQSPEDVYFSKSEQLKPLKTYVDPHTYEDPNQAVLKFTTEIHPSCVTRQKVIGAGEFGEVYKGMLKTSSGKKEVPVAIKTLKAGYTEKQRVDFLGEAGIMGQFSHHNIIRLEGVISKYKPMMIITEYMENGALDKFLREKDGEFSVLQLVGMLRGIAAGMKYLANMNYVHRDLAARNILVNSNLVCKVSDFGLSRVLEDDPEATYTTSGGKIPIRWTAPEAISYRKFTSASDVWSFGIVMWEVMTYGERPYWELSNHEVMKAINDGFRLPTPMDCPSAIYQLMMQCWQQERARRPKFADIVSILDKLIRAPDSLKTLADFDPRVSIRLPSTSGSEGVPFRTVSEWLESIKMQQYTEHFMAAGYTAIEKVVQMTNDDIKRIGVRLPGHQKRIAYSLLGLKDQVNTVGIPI

COc1cc(N(C)c2ccnc3ccc(C(F)(F)F)cc23)cc(OC)c1OC
% binding [1]: 92%

Nc1cnc(N2CCc3cc(S(=O)(=O)Nc4c(F)cc(Cl)cc4F)cc(N4CCCC4=O)c32)nc1 [TP-020n]
% of control [2]: 81% | % of control [3]: 98%

CC[C@@H]1[C@H](F)C(=O)N[C@@H]1COc1nccc2cc(C(N)=O)c(OC)cc12 [ZIMLOVISERTIB]
% of inhibition [4]: -8%

CNC(=O)Nc1ccc(-c2nc(N3CC4CCC(C3)O4)c3cnn(C4CCC5(CC4)OCCO5)c3n2)cc1
% of control [5]: 84%

COCC(=O)NC/C=C/c1ccc2ncnc(Nc3ccc(Oc4ccc(C)nc4)c(C)c3)c2c1 [CP-724714]
% of control [6]: 100%

CN1Cc2nccc(-c3cn(C)nc3-c3ccc(F)cc3)c2C1=O
IC50 (Misshapen-like kinase 1): 1570 nM | % of inhibition [7]: -1% | % of inhibition [8]: 4%

CNCCN1CCC(c2cc(CN(C)C(=O)c3cccc(Oc4ccccc4)c3)ccn2)CC1
% of growth rate [9]: -37.8%

Source: ChEMBL document CHEMBL5465560, “Selectivity Literature for EUbOPEN Chemogenomic Library” (2024)
